Test results taken from patent publication US11780823B2, “Indazole-3-carboxamides and their use as Wnt/β-catenin signaling pathway inhibitors” (BioSplice Therapeutics, Inc., priority 2011, dated 2023).

System: Wnt activity (wnt-responsive SP5 promoter luciferase reporter in SW480 cells)
Assay: Wnt reporter screening assay: SP5 promoter-driven firefly luciferase in SW480 cells
Type: cell-based
Conditions: Homo sapiens; SW480 colon cancer cells with SP5 promoter luciferase reporter; half-log dilutions, ten micromolar top concentration; read 24-40 h after compound addition; normalized to DMSO; read-out: Wnt inhibition
Summary of the method: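 Described as a possible protocol: SW480 cells (APC-mutant colon cancer) stably carrying an SP5 promoter (eight TCF/LEF sites) firefly luciferase reporter, ~10,000 per well. BrightGlo luminescence normalized to DMSO wells for IC50.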

Compound	IC50 [nM]
NC(=O)c1ccc(NC(=O)c2n[nH]c3ccc(-c4cncc(CN5CCCCC5)c4)cc23)cn1 [Compound 180, N-(6-carbamoylpyridin-3-yl)-5-(5-(piperidin-1-ylmethyl)pyridin-3-yl)-1H-indazole-3-carboxamide]	13
O=C(NC1CCCC1)c1ccc(NC(=O)c2n[nH]c3ccc(-c4cccnc4)cc23)cn1 [Compound 181, N-(6-(Cyclopentylcarbamoyl)pyridin-3-yl)-5-(pyridin-3-yl)-1H-indazole-3-carboxamide]	38
Nc1cncc(-c2ccc3[nH]nc(C(=O)Nc4ccc(N5CCCCC5)nc4)c3c2)c1 [Compound 182, 5-(5-Aminopyridin-3-yl)-N-(6-(piperidin-1-yl)pyridin-3-yl)-1H-indazole-3-carboxamide]	35
O=C(Nc1ccc(N2CCCC2)nc1)c1n[nH]c2ccc(-c3cncc(CN4CCC(F)(F)C4)c3)cc12 [Compound 183, 5-(5-((3,3-Difluoropyrrolidin-1-yl)methyl)pyridin-3-yl)-N-(6-(pyrrolidin-1-yl)pyridin-3-yl)-1H-indazole-3-carboxamide]	49
O=C(NC1CCCC1)c1ccc(NC(=O)c2n[nH]c3ccc(-c4cncc(CN5CCCCC5)c4)cc23)cn1 [Compound 184, N-(6-(Cyclopentylcarbamoyl)pyridin-3-yl)-5-(5-(piperidin-1-ylmethyl)pyridin-3-yl)-1H-indazole-3-carboxamide]	40
CS(=O)(=O)c1ccc(NC(=O)c2n[nH]c3ccc(-c4cncc(CN5CCCCC5)c4)cc23)cn1 [Compound 185, N-(6-(Methylsulfonyl)pyridin-3-yl)-5-(5-(piperidin-1-ylmethyl)pyridin-3-yl)-1H-indazole-3-carboxamide]	27
CN1CCN(c2cncc(-c3ccc4[nH]nc(C(=O)Nc5ccc(N6CCCC6)nc5)c4c3)c2)CC1 [Compound 186, 5-(5-(4-Methylpiperazin-1-yl)pyridin-3-yl)-N-(6-(pyrrolidin-1-yl)pyridin-3-yl)-1H-indazole-3-carboxamide]	460
O=C(Nc1ccc(N2CCCC2)nc1)c1n[nH]c2ccc(-c3cncc(N4CCOCC4)c3)cc12 [Compound 187, 5-(5-Morpholinopyridin-3-yl)-N-(6-(pyrrolidin-1-yl)pyridin-3-yl)-1H-indazole-3-carboxamide]	215
O=C(Nc1cccnc1)c1n[nH]c2ccc(-c3cncc(CN4CCC(F)(F)C4)c3)cc12 [Compound 188, 5-(5-((3,3-Difluoropyrrolidin-1-yl)methyl)pyridin-3-yl)-N-(pyridin-3-yl)-1H-indazole-3-carboxamide]	9
O=C(Nc1cccnc1)c1n[nH]c2ccc(-c3cncc(N4CCCC4)c3)cc12 [Compound 189, N-(Pyridin-3-yl)-5-(5-(pyrrolidin-1-yl)pyridin-3-yl)-1H-indazole-3-carboxamide]	85
CN(C)Cc1cncc(-c2ccc3[nH]nc(C(=O)Nc4ccc(N5CCCC5)nc4)c3c2)c1 [Compound 190, 5-(5-((Dimethylamino)methyl)pyridin-3-yl)-N-(6-(pyrrolidin-1-yl)pyridin-3-yl)-1H-indazole-3-carboxamide]	1200
